Test results published in US9056847B2, “Activity based probes (ABPs) interacting with glycosidases” (ACADEMISCH MEDISCH CENTRUM BIJ UNIVERSITEIT VAN AMSTERDAM, priority 2010, dated 2015).
Where two headings read alike, the source gives them in different places.

Assays:
[1] = biological target: T1, GBA (Homo sapiens (Human), UniProt P04062, R534H); assay: Sensitivity of detection of ABP-labeled GBA on slab gel by fluorescence scanning
Procedure: After the incubation, we resolved the protein preparations with SDS-PAGE and analyzed the labeled proteins by fluorescence scanning of the slab gel on a Typhoon Variable Mode Imager (FIG. 24a). Labeled recombinant GBA migrated at the expected mass of 57 kDa. […] We could detect as little as 20 attomol GBA by fluorescence scanning. […] Apparently, nearly all of the probe had been covalently bound to recombinant GBA, consistent with its high affinity for binding.

[2] = biological target: T2, GBA (Mus musculus (Mouse), UniProt P17439); assay: Labeling specificity in cell homogenates (SDS-PAGE, fluorescence scanning); details: 100 nM, 30 min, 37° C., homogenates of cultured RAW cells
Target sequence in this assay (P17439 20-515 limits assumed): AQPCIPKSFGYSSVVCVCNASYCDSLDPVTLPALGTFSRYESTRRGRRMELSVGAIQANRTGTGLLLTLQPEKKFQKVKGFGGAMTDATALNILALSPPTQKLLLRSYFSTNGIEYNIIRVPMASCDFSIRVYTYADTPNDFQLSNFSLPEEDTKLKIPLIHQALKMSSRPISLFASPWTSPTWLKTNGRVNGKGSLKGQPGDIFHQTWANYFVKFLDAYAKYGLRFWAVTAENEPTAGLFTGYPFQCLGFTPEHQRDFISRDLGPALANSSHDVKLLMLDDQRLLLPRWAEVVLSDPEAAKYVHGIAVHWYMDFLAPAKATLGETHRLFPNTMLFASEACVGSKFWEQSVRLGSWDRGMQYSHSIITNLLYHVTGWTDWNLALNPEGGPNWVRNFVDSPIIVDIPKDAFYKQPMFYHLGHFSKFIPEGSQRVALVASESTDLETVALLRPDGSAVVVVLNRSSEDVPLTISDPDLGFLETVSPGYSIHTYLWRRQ

[3] = biological target: glucocerebrosidase (Homo sapiens (Human), UniProt P04062); assay: In situ inhibition of glucocerebrosidase in cells at 18° C. and 37° C.; assay type: cell-based; details: 10 nM, 2 hours
Sequence of glucocerebrosidase (P04062 40-536): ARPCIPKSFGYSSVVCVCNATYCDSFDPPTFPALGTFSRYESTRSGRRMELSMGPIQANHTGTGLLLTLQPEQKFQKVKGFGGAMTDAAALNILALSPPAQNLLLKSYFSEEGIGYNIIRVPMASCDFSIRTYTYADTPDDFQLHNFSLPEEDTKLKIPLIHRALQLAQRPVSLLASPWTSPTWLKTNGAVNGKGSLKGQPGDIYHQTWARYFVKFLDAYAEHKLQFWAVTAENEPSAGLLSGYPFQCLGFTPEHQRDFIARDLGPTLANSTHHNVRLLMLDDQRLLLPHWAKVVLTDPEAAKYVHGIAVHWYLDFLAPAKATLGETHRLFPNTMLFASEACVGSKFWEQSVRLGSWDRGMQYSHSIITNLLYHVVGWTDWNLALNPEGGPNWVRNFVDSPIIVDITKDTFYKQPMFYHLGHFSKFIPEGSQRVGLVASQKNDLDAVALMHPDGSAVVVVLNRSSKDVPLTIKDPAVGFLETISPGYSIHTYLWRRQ
Source text: To identify the mechanism of entry of the probes, we performed a temperature experiment. […] We harvested the cells and determined the residual activity using a fluorogenic substrate assay. […] We therefore exclude that the uptake is solely by endocytosis.

[4] = biological target: GBA1 (Homo sapiens (Human), UniProt P04062); assay: Kinetic constants of GBA1 inhibition (Table 2); assay type: biochemical; details: Table 2 kinetic constants
Sequence of GBA1 (Homo sapiens (Human), UniProt P04062) (P04062 40-536): as above

[5] = biological target: T1, GBA; assay: GBA enzyme activity assay with 4-methylumbelliferyl β-D-glucopyranoside, inhibitor preincubated 30 min (apparent IC50); assay type: biochemical
[6] = system: lactase (lactase-phloridzin hydrolase: LPH); assay: Lactase activity inhibition (liberated glucose); details: incubation for 30 min with 1 mM
[7] = biological target: T1, GBA; assay: Continuous substrate release assay for inhibition constants; assay type: biochemical
Source text: Previously discontinuous methods have been used to determine the inhibition constants of glycosidase inhibitors. […] Therefore the inhibition constants have been determined in a continuous substrate assay which was first described in 1982 (2) and has recently been reappraised in 2010 (3). In these experiments, inhibition of the enzyme and hydrolysis of the substrate proceed concurrently making the situation slightly more complex than the discontinuous (FIG. 39 Scheme 2). The time-dependent interaction of inhibitor (I) with free β-glucosidase (E) was considered to occur in separate stages (A). A rapid reversible interaction is followed by a slower, irreversible reaction that transforms the reversible enzyme-inhibitor complex (EI) into an irreversible enzyme-inhibitor complex (EI*) (FIG. 39 Scheme 2). Progress curves were obtained (FIG. 28a) and apparent rate constant k′ was plotted versus the concentration (FIG. 28b) to obtain estimates of the Ki (equilibrium constant) and ki (rate constant)
To 100 μL McIlvaine buffer (pH 5.2, 0.2% sodium taurocholate, 0.1% Triton X-100) containing 4-methylumbelliferyl β-D-glucoside (7.5 mM) in Greiner flat bottom black 96-well plate was added 5 μL inhibitor (25× stock in DMSO). The resulting mixture was preincubated at 37° C. for 15 min in a TECAN GENios microplate reader. GBA (2 ng) in McIlvaine buffer (20 μL pH 5.2, 0.2% sodium taurocholate, 0.1% Triton X-100) was preheated to 37° C. for 15 min before being added to the substrate mix. The resulting solution was mixed by horizontal shaking for 15 sec, after which release 4-methylumbelliferyl measured with a TECAN GENios platereader (λex 340 nm and λem 465 nm) for the indicated time. Bleaching of the fluorophore, which was observed during the assay, was corrected by subtracting blanks (100 μL substrate buffer, 5 μL DMSO, 20 μL McIlvaine buffer). Apparent rate constants k′ were obtained by fitting the resulting progress curves (FIG. 28A) to the one-phase association equitation y (y max y0)(1−exp^−kt)yo+in GraphPad Prism version 5.00 for Windows, GraphPad Software, San Diego Calif. USA, www.graphpad.com. Measurements were performed in nine fold and plotting of the obtained k′ values versus [^I0] yielded rectangular hyperbolar functions (FIG. 28B).
[formula] estimates of Ki app and ki were obtained. The Ki value in the absence of substrate was obtained by correcting the Ki app with […]

[8] = biological target: GBA1 (Homo sapiens (Human), UniProt P04062, N370S); assay: In situ labeling of GBA1 in Gaucher (N370S) fibroblasts; assay type: cell-based; details: 20 nM for 1 hour, N370S GBA1 homozygote fibroblasts
Sequence of GBA1 (Homo sapiens (Human), UniProt P04062, N370S) (P04062 40-536 N409S): as the sequence (P04062 40-536) above, with N370S counted along it
Procedure: FIG. 20 presents a schematic illustration of Gaucher treatment (FIG. 20a) via the chaperone isofagimine, whose structure is separately shown in FIG. 20b. […] The fibroblasts were labeled with Fluorophore 1-cyclophellitol (for example 20 nM for 1 hour), wherein about 50% of cellular GBA1 was labeled.

[9] = biological target: T2, GBA; assay: Labeling of GBA in live mice; assay type: in vivo; details: 0.1 nmol intravenously, 2 h
Procedure: We next studied the labeling of GBA by MDW941 in intact fibroblasts using time-lapse microscopy. […] As a control, matched mice received the buffer solution intravenously. […] In addition to GBA, MDW933 clearly labeled other proteins that occur in the intestine in the mouse.
Experimental procedures were all approved by the appropriate ethics committee for animal experiments. C57BI/6J mice were obtained from Harlan and fed a commercially available lab diet (RMH-B; Hope Farms). […] After 2 h of administration the mice were anesthetized with FFM mix (1 ml of fentanylcitrate, 1 ml of midazalam and 2 ml of distilled water), and blood, urine and organs were collected and directly frozen in liquid nitrogen. […] Homogenates were analyzed as described above.
Target sequence in this assay (P17439 20-515): as the sequence (P17439 20-515 limits assumed) above

T1 sequence (P04062 40-536 R534H): as the sequence (P04062 40-536) above, with R495H counted along it

For `CC1=CC(C)=[N+]2C1=C(CCCCc1cn(C[C@@H]3[C@@H](O)[C@H](O)[C@@H](O)[C@@H]4O[C@H]34)nn1)c1c(C)cc(C)n1[B-]2(F)F` [MDW933], the “amount of labeled GBA detectable by fluorescence scanning” value ([1]; 2 pmol GBA with excess probe, 1 h, 37° C., titration on gel) was 20 attomol, the “amount of probe resulting in detectable GBA on slab gel” value ([1]; 2 pmol GBA, 30 min) was 20 attomol and the “amount of GBA1 detected on slab gel” value ([1]; ABP-labeled GBA1) was 10 attomole. The labeling specificity [2] was “exclusive labeling of GBA”, the “in situ glucocerebrosidase activity” value [3] was “blocked glucocerebrosidase activity in situ” and the Ki [4] was 0.95 nM. The ki [4] was 0.0236 min⁻¹, the IC50 ([5]; FIG. 16, ABPs designed for GBA1, read-out: IC50) was 2 nM and the IC50 ([5]; rec. GBA1, 30 min, 37 C., pH 5.2 + Tch, Tr, read-out: Apparent IC50 (nM) rec. GBA1: 30 min, 37 C., pH 5.2 + Tch, Tr) was 2 ± 0.5 nM. For the same compound, the IC50 ([5]; recombinant GBA, read-out: apparent half-maximal inhibitory concentration (IC50)) was 1.24 ± 0.04 nM, the “inhibition of lactase activity” value [6] was roughly 90% and the Ki ([7]; equilibrium constant for initial binding, reported with s.e.m.) was 7 ± 2 nM. For the same compound, the “ki” value ([7]; rate constant, reported with s.e.m.) was 0.127 ± 0.024 min⁻¹, the “ki/Ki” value ([7]; relative rate constant) was 296000 M⁻¹ s⁻¹ and the “cellular GBA1 labeled” value [8] was “about 50%”. The “in vivo labeling of GBA in brain” value ([9]; brain) was “almost no GBA” and the “in vivo labeling of GBA in most tissues” value ([9]; lung and liver) was “a considerable proportion of GBA”.
